From patent US20240336573A1, “COMPOUND FOR THE TREATMENT AND PROPHYLAXIS OF INFECTIOUS DISEASES” (Eberhard Karls Universität Tübingen Medizinische Fakultät, priority 2021, published 2024)
Read-outs that look alike come from different tables or passages of the source.

What was measured:
luciferase [1] = molecular target: T1, luciferase (Photinus pyralis, UniProt P08659); assay: Luciferase interference deselection assay (D1); assay type: biochemical; settings: DRC format
Text: Starting with approximately 400,000 compounds, a set of 3991 compounds was left for testing in dose response experiments. Due to acquisition of a lower assay window for part of the data obtained during the screening campaign of ELFSC17_02, the data-set was split into P1 and P2 for analysis in ActivityBase. For P1 the initially set criterion of Z-score ≥4 (˜4%) was used for selection of actives and for P2 this selection criterion was adjusted to effect ≥40% (Z-score ˜15). […] In order to reduce this total number of 4205 compounds to a maximum of 4000 compounds allowed to be ordered in serial dilutions for dose response experiments (i.e. 1% of 400,000), the criterion for P1 was changed to Z-score >4.3 gaining 3344 compounds. […] The confirmed actives of ELF program ELFSC17-02 were tested as serial dilutions in the primary assay and deselection assay to generate dose response curves (DRCs). The serial dilutions consisted of 7 equidistant concentration steps (20 μM to 27.4 nM) and were tested in the primary and in the deselection assay in duplo (n=2) in 1536-well format. […] For the luciferase interference deselection assay in DRC-format, luciferase was left out in the Max effect wells, mimicking a 100% effect situation and resulting in a decreased signal. Compounds showing a signal decrease larger than 5 times the standard deviation (Z-score >5) were identified as luciferase […]. […] The ActivityBase application (IDBS) was used to analyze the data and to calculate quality parameters like Z-prime and Signal to Background ratio (S/B). For all compounds the % effect was calculated for all seven concentrations. ActivityBase was also used to calculate the pEC50 and Hill Slope. […] For compounds where no curve was fitted but reached >50% effect at 20 μM the Fit_Max was locked at 100% effect. For compounds where no curve was fitted but reached 100% effect at 20 μM and descended to <50% at 27 nM the Fit_Min was locked at 0%. […] Based on the results of C2 and D1 a list of 383 compounds was created as the preliminary hits, which were evaluated with MST (01). […]

SurA [2] = molecular target: T2, SurA (Escherichia coli, UniProt P0ABZ6); assay: nanoDSF thermal shift assay (Prometheus); assay type: binding, E. coli; design: key to nanoDSF pH 5 Ti#1 / nanoDSF pH 5 Ti#2 / nanoDSF pH 7.4 Ti#1 / nanoDSF pH 7.4 Ti#2: An increase of the inflection points in the nanoDSF experiments is indicated by (+); a decrease by (−); no changes with (none); ambiguity with a question mark (?); settings: for nanoDSF pH 7.4 Ti#1 / nanoDSF pH 7.4 Ti#2: 40 mM HEPES pH 7.4, 150 NaCl; for nanoDSF pH 5 Ti#1 / nanoDSF pH 5 Ti#2: 50 mM HAc pH 5; for Thermal stability of SurA as detected by nanoDSF: resynthesized compounds
Protocol: To this end, 5 μl of a 2 mM compound solution in DMSO were mixed with 95 μl of a 20 μM SurA solution. Technical triplicate measurements were performed on a Prometheus system (NanoTemper).

SurA [3] = molecular target: T2, SurA; assay: Microscale thermophoresis (Tuebingen, Monolith NT.115); assay type: binding, E. coli; settings: for MST score (Re-evaluation Tuebingen): re-evaluation of QHL compound remainders
Protocol: His-tagged SurA was labeled with the Monolith His-Tag Labeling Kit RED-tris-NTA (Nanotemper) according to the manufacturer's instructions.
Microscale thermophoresis measurements were performed in 40 mM HEPES pH 7.4, 0.05% Tween-20 at 25° C. with a Monolith NT.115 (NanoTemper) in standard capillaries.

luciferase [4] = molecular target: T1, luciferase; assay: Primary assay buffer control: interference with Luciferase per se; assay type: biochemical, firefly; design: key: no influence on Luc activity = 0; enhances Luc activity = +; reduces Luc activity = −
Protocol: In short, the Luciferase based SurA activity assay was performed in SurA Activity Assay Buffer (40 mM HEPES pH 7.4, 20 mM MgSO4, 0.5 g/I BSA). SurA aliquots were thawn at RT, activated by mild heat treatment and cooled down to RT for 10 min. SurA concentration was adjusted to 1.6 μM in Activity Assay Buffer (protein solution). Solution A containing 10 mM ATP as well as 0.3 mM Luciferin (Promega Beetle Luciferin, Potassium Salt) in water was prepared. Luciferase working solution was prepared by diluting 1 ml Luciferase working stock (100 nM) with 9 ml assay buffer. 33 μl of the protein solution were added to every 2nd row of a well of a 384-well PS, white, flat bottom plate. […] Subsequently, 2 μl of compound in DMSO were added in quadruplicates (4 wells each of protein solution and buffer controls). These compound solutions could contain either various compounds or different dilutions of the same compound allowing screening inhibitor activity in a dose dependent manner. After compound addition, plates were incubated 15 min at RT. After this incubation, 5 μl of Luciferase working solution were added to each well. […] Subsequently, the assay plate was cooled for 5 min at 4° C. followed by 10 min incubation at RT prior to luminescence measurement. Luminescence was measured in a TECAN infinite M200 pro plate reader for each well individually after injection of 10 μl Solution A.

T2 sequence (P0ABZ6 21-428): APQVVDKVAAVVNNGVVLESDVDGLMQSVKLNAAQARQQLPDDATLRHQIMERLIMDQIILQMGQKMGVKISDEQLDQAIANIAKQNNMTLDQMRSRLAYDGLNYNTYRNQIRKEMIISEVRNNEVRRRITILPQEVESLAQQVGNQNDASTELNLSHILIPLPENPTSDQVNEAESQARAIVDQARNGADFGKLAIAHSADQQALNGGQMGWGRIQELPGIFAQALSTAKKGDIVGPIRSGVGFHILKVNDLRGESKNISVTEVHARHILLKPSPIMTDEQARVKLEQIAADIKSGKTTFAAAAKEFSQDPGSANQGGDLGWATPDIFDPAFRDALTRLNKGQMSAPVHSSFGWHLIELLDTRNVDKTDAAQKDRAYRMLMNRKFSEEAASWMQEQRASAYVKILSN
T1 sequence (P08659 whole entry): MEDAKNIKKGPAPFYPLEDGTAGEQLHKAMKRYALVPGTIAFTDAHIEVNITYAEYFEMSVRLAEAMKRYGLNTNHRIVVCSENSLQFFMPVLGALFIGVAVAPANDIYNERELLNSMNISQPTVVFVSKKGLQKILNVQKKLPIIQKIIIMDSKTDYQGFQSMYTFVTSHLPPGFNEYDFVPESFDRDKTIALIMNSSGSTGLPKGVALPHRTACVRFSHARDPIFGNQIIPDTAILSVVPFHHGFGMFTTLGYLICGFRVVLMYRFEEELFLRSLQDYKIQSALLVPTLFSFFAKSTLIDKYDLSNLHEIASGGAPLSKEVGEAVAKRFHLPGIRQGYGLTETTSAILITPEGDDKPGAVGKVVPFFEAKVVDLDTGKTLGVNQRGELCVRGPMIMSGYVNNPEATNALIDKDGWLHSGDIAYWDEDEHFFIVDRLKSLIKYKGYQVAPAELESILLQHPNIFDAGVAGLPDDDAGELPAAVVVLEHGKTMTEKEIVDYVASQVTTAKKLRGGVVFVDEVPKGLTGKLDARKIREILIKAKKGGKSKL

Structure (SMILES)	Deselection (D1) pIC50 (luciferase [1])	nanoDSF pH 7.4 Ti#1 (SurA [2])	nanoDSF pH 7.4 Ti#2 (SurA [2])	nanoDSF pH 5 Ti#1 (SurA [2])	nanoDSF pH 5 Ti#2 (SurA [2])	Thermal stability of SurA as detected by nanoDSF (SurA [2])	MST score (Re-evaluation Tuebingen) (SurA [3])	Kd (SurA [3]; read-out: MST (Kd in mM)) [mM]	MST (KD) (SurA [3]; resynthesized compounds)	Kd (SurA [3]; resynthesized compounds, read-out: MST (KD)) [mM]	primary assay Luciferase (luciferase [4])	Deselection (D1) pIC50 (luciferase [1]; listed as QHL-10)	IC50 (luciferase [1]; read-out: Deselection (D1) pIC50 (converted)) [µM]	MST (Kd in mM) (SurA [3])
CN(C)c1ccc(-c2nc3cc(NC(=O)Cn4cc5ccccc5n4)ccc3[nH]2)cc1 [QHL-24]	4.42	none	−	none	+	affected the thermal stability of SurA	inconclusive	0.02 to 0.03	binding	0.02 to 0.03	−			
NC(=O)c1nc(Cc2ccc(OCC(=O)O)cc2)[nH]c1NC(=O)c1ccc(-c2ccccc2)cc1 [Compound 2a, 2-(4-((5-([1,1′-biphenyl]-4-carboxamido)-4-carbamoyl-1H-imidazol-2-yl)methyl)phenoxy)acetic acid]		none	−	+	−	affected the thermal stability of SurA	2		binding		−	5.16	6.92	binding
